The target of assay [1] is GDP-bound KRAS protein (aa 1-169), containing both G12C and C118A amino acid substitutions (Homo sapiens, UniProt P01116, C118A/G12C). Description: Coupled Nucleotide Exchange Assay (Table 16 conditions: 5 min pre-incubation). Format: biochemical. The note with it: 5 min compound pre-incubation; SOS-mediated nucleotide exchange, AlphaScreen. As to the method: (§1) For compounds in Table 16, the following assay conditions were employed:
The assay plates were then read on a PerkinElmer EnVision Multilabel Reader, using AlphaScreen® technology, and data were analyzed using a 4-parameter logistic model to calculate IC50 values.
For orientation: Alpha assays give light when donor and acceptor beads are brought close together.

The subject of assay [2] is Phosphorylation of ERK1/2 in MIA PaCa-2 cells. Description: Phospho-ERK1/2 MSD Assay, MIA PaCa-2 (Table 16 conditions: 2 hours compound treatment). Format: cell-based. The note with it: 10 ng/mL EGF for 10 min, read-out: p-ERK IC50 (MIA PaCa-2).
Assay [3] relates to Phosphorylation of ERK1/2 in A549 cells. Description: Phospho-ERK1/2 MSD Assay, A549 (Table 16 conditions: 2 hours compound treatment). Type of assay: cell-based. The note with it: Homo sapiens, 10 ng/mL EGF for 10 min, read-out: p-ERK IC50 (A549). The procedure: as §1
Phospho-ERK1/2 MSD Assay: MIA PaCa-2 (ATCC® CRL-1420™) and A549 (ATCC® CCL-185™) cells were cultured in RPMI 1640 Medium (ThermoFisher Scientific 11875093) containing 10% fetal bovine serum (ThermoFisher Scientific 16000044) and 1× penicillin-streptomycin-glutamine (ThermoFisher Scientific 10378016). Sixteen hours prior to compound treatment, MIA PaCa-2 or A549 cells were seeded in 96-well cell culture plates at a density of 25,000 cells/well and incubated at 37° C., 5% CO2. A compound dose-response titration was diluted in growth media, added to appropriate wells of a cell culture plate, and then incubated at 37° C., 5% CO2 for 2 hours. Following compound treatment, cells were stimulated with 10 ng/mL EGF (Roche 11376454001) for 10 min, washed with ice-cold Dulbecco's phosphate-buffered saline, no Ca^2+ or Mg^2+ (ThermoFisher Scientific 14190144), and then lysed in RIP A buffer (50 mM Tris-HCl pH 7.5, 1% Igepal, 0.5% sodium deoxycholate, 150 mM NaCl, and 0.5% sodium dodecyl sulfate) containing protease inhibitors (Roche 4693132001) and phosphatase inhibitors (Roche 4906837001). […] Assay plates were read on a Meso Scale Discovery Sector Imager 6000, and data were analyzed using a 4-parameter logistic model to calculate IC50 values.

Where two headings read alike, the source gives them in different places.

GDP-bound KRAS protein (aa 1-169), containing both G12C and C118A amino acid substitutions, sequence (P01116 1-169 isoform P01116-2 G12C/C118A): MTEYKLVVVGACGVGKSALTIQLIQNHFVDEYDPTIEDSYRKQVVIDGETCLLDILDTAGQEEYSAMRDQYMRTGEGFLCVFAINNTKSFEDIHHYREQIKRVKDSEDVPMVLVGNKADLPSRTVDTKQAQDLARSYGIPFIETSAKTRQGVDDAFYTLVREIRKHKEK

On to `C=CC(=O)N1CCN(c2nc(=O)n(-c3scnc3C(C)C)c3nc(-c4c(O)cccc4F)c(Cl)cc23)[C@@H](C)C1` [Example 48, 6-Chloro-7-(2-fluoro-6-hydroxyphenyl)-4-((2S)-2-methyl-4-(2-propenoyl)-1-piperazinyl)-1-(4-(2-propanyl)-1,3-thiazol-5-yl)pyrido[2,3-d]pyrimidin-2(1H)-one], for which the IC50 in assay [1] is 81 nM; in assay [2] (Homo sapiens, MIA PaCa-2, MIA PaCa-2 cells), 63 nM; in assay [3], greater than 10000 nM.
Consider `C=CC(=O)N1CCN(c2nc(=O)n(-c3c(C)cccc3C(C)C)c3nc(-c4c(O)cccc4F)c(Cl)cc23)[C@@H](C)C1` [Example 39, 6-Chloro-7-(2-fluoro-6-hydroxyphenyl)-1-(2-methyl-6-(2-propanyl)phenyl)-4-((2S)-2-methyl-4-(2-propenoyl)-1-piperazinyl)pyrido[2,3-d]pyrimidin-2(1H)-one], for which the IC50 in assay [1] was 63 nM; in assay [2] (MIA PaCa-2 cells) it was 29 nM; in assay [3] it was greater than 100000 nM.

As a reminder, the IC50 is the midpoint of a concentration-inhibition curve.
